The source of these data is article PMC12040169 (PLOS Biology, 2025).

The structures appear in SMILES notation.

This data set can be described thus: in vitro. Conditions: human, hela cells, % viability.
With `COc1cc(CNC(=O)NC(=O)C2CCN(C(C)=O)CC2)cc(OC)c1OC` [CBK034833], the viability at 28.5 h, 10 µM is 105%. As for `CNC(=O)c1nn(CCCc2ccc(OC)cc2)c2ccccc12` [CBK105842], the viability at 28.5 h, 10 µM is 109%. With `CC(=O)Nc1cccc(NC(=O)N2CCN(C3CCN(C)CC3)CC2)c1` [CBK155901], the viability at 28.5 h, 10 µM was determined as 85.1%.

Consider `O=C(O)CCC(=O)NCc1ccc(-c2nccnc2NS(=O)(=O)c2ccc(O)cc2)cc1` [CBK073843], for which the viability at 28.5 h, 10 µM is 106%.

`CCC(NC(=O)CCc1cc2n(n1)CCNC2)c1cn2cccnc2n1` (centres unmarked) [CBK307090]: the viability at 28.5 h, 10 µM came out at 87.1%. As to `CC1CCN(c2ccc(C(=O)CCCO)cc2)CC1` [CBK010358], the viability at 28.5 h, 10 µM was 91.8%. In the case of `COc1ncc(-c2ccc(NCCn3cc[nH]c3=O)nc2)c(OC)n1` [CBK037719], the viability at 28.5 h, 10 µM came to 88.9%. Turning to `CCc1[nH]c2ccc(C(=O)NC3CCCOC3)cc2c1C` (centres unmarked) [CBK283247], the viability at 28.5 h, 10 µM came to 95.9%. The value for `Cc1ccc(C(=O)Nc2ccc(S(=O)(=O)N3CCCC3)cc2)cc1S(=O)(=O)Nc1ccccc1` [CBK268054] was 47.4%; that for `CC(C)(C)c1ccc2c(c1)C(CCCCN1CCCC1)(c1ccccc1)C(=O)O2` (centres unmarked) [CBK017654C] was 102%. As to `Cc1ccc(C(=O)n2nc(-c3cccnc3)nc2N)cc1` [CBK288172], the viability at 28.5 h, 10 µM was 97.4%. Consider `CC(C)NC(=O)C1(Cc2ccccc2-c2ccncc2)CCOCC1` [CBK284786], for which the viability at 28.5 h, 10 µM is 94.1%. Turning to `COc1ccc(S(=O)(=O)N2Cc3ccccc3CC2C(=O)Nc2sc3c(c2C#N)CCCC3)cc1` (centres unmarked) [CBK266363], the viability at 28.5 h, 10 µM worked out at 116%. As to `COCCOCN1C(=O)CC2(C1=O)C(=O)N(CC(=O)O)c1ccc(F)cc12` (centres unmarked) [CBK076163], the viability at 28.5 h, 10 µM was found to be 90.5%.

Consider `CC1CC(C)CN(C(=O)Cn2c(-c3nonc3N)nc3ccccc32)C1` (centres unmarked) [CBK264694], for which the viability at 28.5 h, 10 µM was 89.7%.

`Cc1cc(Cl)ccc1NC(=O)CN1CCN(Cc2ccccc2)CC1` [CBK269438]: the viability at 28.5 h, 10 µM amounted to 93.6%. As for `CCC(=O)NC(NC(=S)Nc1cccc2cccnc12)C(Cl)(Cl)Cl` (centres unmarked) [CBK261027], the viability at 28.5 h, 10 µM is 96.1%.

In the case of `O=C(O)c1ccc(CN2CCC3(C/C=C/CNC(=O)c4ccccc4OCCNC3=O)CC2)cc1` [CBK292002], the viability at 28.5 h, 10 µM is 109%. The result for `CC(C)Cc1nsc(NC2CCCN(c3ccn(C)n3)C2=O)n1` (centres unmarked) [CBK304696] reads 91.2%; that for `O=C(NC1CC1)c1cc(C2CCCN(Cc3cccc(F)c3)C2)no1` (centres unmarked) [CBK284588], 99%. Regarding `COc1ccccc1N1C(=O)CC(SC(=N)N/N=C(\C)c2ccc(O)cc2)C1=O` (centres unmarked) [CBK262766], the viability at 28.5 h, 10 µM came to 100%. The result for `Cc1nn(C)c(C)c1C(=O)Nc1sc2c(c1C#N)CCC(C)C2` (centres unmarked) [CBK304645] reads 54.9%; that for `Cc1ncsc1CCOc1cccc(C(F)(F)F)n1` [CBK115794], 117%; that for `CCc1ccc2c(c1)C(CCNC(=O)CCc1ccsc1)C(=O)N2` (centres unmarked) [CBK305063], 94.5%. For `COc1ccccc1CN(Cc1cccnc1)C(=O)CCC(F)(F)F` [CBK307713], the viability at 28.5 h, 10 µM was found to be 92.3%.

For the molecule `O=C(O)c1cc(-c2ccc3c(c2)OCCO3)nc2ccccc12` [CBK262422], the viability at 28.5 h, 10 µM is 92.5%. Turning to `COc1cc(/C=N/NC(=O)CNC(=O)c2ccncc2)ccc1O` [CBK262013], the viability at 28.5 h, 10 µM came out at 102%.

On to `CC(=O)N1C[C@@H]2CCCCN(CC(=O)NC3CC3)[C@@H]2C1` [CBK285508], for which the viability at 28.5 h, 10 µM turned out to be 101%. As to `Cc1cc(C(=O)N2CCC(n3c(=O)[nH]c4ccccc43)CC2)no1` [CBK149714], the viability at 28.5 h, 10 µM was 103%. The result for `CN1CCC(OCCCn2ccnc2-c2ccccc2C(=O)O)CC1` [CBK307188] reads 87%; that for `COCCc1noc(CC2CCN(c3ccc(Cl)c(C#N)n3)CC2)n1` [CBK304177], 97.5%; that for `Cc1ccc(SCCN2CCN(Cc3ccccc3)CC2)cc1` [CBK268653G], 99.1%. `COc1ccc(C(=O)COC(=O)c2cccc(N3C(=O)C4C5C=C(C)C(C5)C4C3=O)c2)cc1` (centres unmarked) [CBK264808]: the viability at 28.5 h, 10 µM worked out at 94.1%.

As for `NC(=O)c1c(NC(=O)c2nc3ccccc3s2)sc2c1CCCCC2` [CBK287566], the viability at 28.5 h, 10 µM was found to be 96.5%. The result for `O=C(N[C@H]1CCN2C(=O)[C@H]3CCCN3C(=O)[C@@H]2C1)c1cccs1` [CBK289538] reads 106%. In the case of `O=C(O)c1ccc(NS(=O)(=O)c2ccc(NC(=O)c3ccccc3Cl)cc2)cc1` [CBK265184], the viability at 28.5 h, 10 µM was 93%. For `COc1cc(OC)c(NS(=O)(=O)c2ccc(C(=O)O)cc2)cc1Cl` [CBK296620], the viability at 28.5 h, 10 µM was 97.5%. `Cn1cccc1C(=O)N[C@H]1C[C@@H]2C(=O)N[C@H]3CCN(C(=O)C4CCCC4)[C@@H]3C(=O)N2C1` [CBK289272]: the viability at 28.5 h, 10 µM came to 97.1%.

`COCCNC(=O)C1(O)c2ccccc2NC(=O)N1c1cccc(OC)c1` (centres unmarked) [CBK288589]: the viability at 28.5 h, 10 µM worked out at 110%.

Turning to `Cc1cc(C(=O)NCCCN(C)C)ccc1[N+](=O)[O-]` [CBK262467], the viability at 28.5 h, 10 µM turned out to be 90.8%. Consider `Cc1cccc(C2(O)CCN(CC(O)c3ccc(F)cc3)CC2)c1` (centres unmarked) [CBK282504], for which the viability at 28.5 h, 10 µM was found to be 96.6%.

For `NC1=Nc2nc3ccccc3n2C(c2ccc3c(c2)OCO3)N1` (centres unmarked) [CBK269906], the viability at 28.5 h, 10 µM came to 85.7%. On to `O=C(N[C@H]1CO[C@H]2[C@@H]1OC[C@@H]2Nc1nccc(-c2cccs2)n1)c1ccccc1` [CBK289516], for which the viability at 28.5 h, 10 µM is 84.5%. As for `O=C(NCCC(c1ccccc1)c1ccco1)C1CCCN1` (centres unmarked) [CBK282499], the viability at 28.5 h, 10 µM was 85%. For `COCCNc1nc(-c2cccc(-c3ccccc3)c2)cnc1N` [CBK063474], the viability at 28.5 h, 10 µM turned out to be 99.5%. In the case of `CN(Cc1ccccc1)CC(O)c1ccc2c(c1)CCCN2C(=O)c1ccccc1F` (centres unmarked) [CBK286278], the viability at 28.5 h, 10 µM came out at 88.2%.

As to `C[C@H](c1ccccc1)n1c(=O)[nH]c2ncc(-c3cccc(C(=O)NCCN(C)C)c3)nc21` [CBK064204], the viability at 28.5 h, 10 µM turned out to be 96.5%. Consider `O=C(/C=C/c1ccc(Cl)cc1)Nc1nnn[nH]1` [CBK265468], for which the viability at 28.5 h, 10 µM was determined as 81.8%. Consider `Cc1ccc(C(=O)N(C)Cc2cc(-c3ccncc3)no2)c(=O)n1C` [CBK307324], for which the viability at 28.5 h, 10 µM is 83.7%.

Regarding `Cn1c(-c2c(CCC(=O)O)oc3cc(O)ccc3c2=O)nc2ccccc21` [CBK264831], the viability at 28.5 h, 10 µM stood at 96%. On to `COC(=O)CC(C)(C)/C(C)=N/NS(=O)(=O)c1ccc(C)cc1` [CBK263602], for which the viability at 28.5 h, 10 µM is 86.7%. As to `COc1nccnc1N1CCN(Cc2ccc([N+](=O)[O-])cc2)CC1` [CBK084217], the viability at 28.5 h, 10 µM was 103%. For the molecule `CCN(CC)C(=O)C1CCCN(C(=O)Nc2ccc(N(CC)CC)cc2)C1` (centres unmarked) [CBK156139], the viability at 28.5 h, 10 µM came out at 94.4%. `COc1ccc(Nc2nccc3c2nnn3C)cc1` [CBK287879]: the viability at 28.5 h, 10 µM is 80.9%. The result for `Cc1ccc(C2(O)CCN(CCNC(=O)C3CCCC3)CC2)cc1` [CBK282606] reads 93.1%. The result for `Nc1nc(=O)[nH]c2c1ncn2[C@H]1C[C@@H](O)[C@@H](CO)O1` [CBK201323] reads 86%.

The term viability denotes a read-out of living cells in per cent, often relative to untreated cells.
